Results as given in patent publication US20050014706A1, “Method of treating tuberculosis” (priority 2003, published 2005).
In brackets after ≈: the same amount, converted by molar mass. Where two headings read alike, the source gives them in different places.

What was measured:
tubercle bacillus [1] = details: literature (Luna-Herrera 1995; Truffot-Pernot 1995); cited from earlier work
VERO cells [2] = assay: Cytotoxicity against VERO cells (MTS, 72 hours); details: for IC50: read-out: Vero IC50 (toxicity); for toxicity / cytotoxicity in words: in vitro study
tubercle bacillus [3] = details: literature; cited from earlier work
M. tuberculosis H37Rv [4] = assay: MIC vs. M. tuberculosis H37Rv, microplate Alamar Blue assay (MABA); format: cell-based; details: for enhancement in potency of macrolide over counterpart ketolide: vs. telithromycin, RU004, RU56006 respectively; for MIC / activity vs. M. tuberculosis in words: in vitro
VERO cells [5] = test system: VERO cells
[6] = test system: J774.1 macrophage cell line; assay: Cytotoxicity against J774.1 macrophage cell line; format: cell-based, murine; details: for IC50: Mus musculus, J774.1
M. tuberculosis H37Rv [7] = details: positive quality control, MABA; cited from earlier work
M. tuberculosis = assay: Activity against M. tuberculosis in mice (follow-up, dose response); format: in vivo
[8] = Overt toxicity in mice, escalating 5-day cycles; format: in vivo, Balb/C mice; details: once daily 5-day cycles, sequentially 200, 300, 400, 500 mg/kg
Experimental: Prior to assessing in vivo efficacy, RU66252 and RU69874 were administered to pairs of female Balb/C mice once daily for 5-day cycles, and observed for overt signs of toxicity (e.g., weight loss, ruffled fur, and huddling), after which the mice were rested for 1 or 2 days. Then the dosage was increased for another 5-day cycle. Overall, the same mice received sequentially for 5 days: 200, 300, 400, and 500 mg/kg.

M. tuberculosis Erdman = format: in vivo, BALB/c mice; details: for activity against M. tuberculosis in the acute phase of infection: 100 and 200 mg/kg qd (RU60887 100 mg/kg only)
[9] = Mycobacterium tuberculosis, H37RV, Table 1a, 11,12-carbamate derivatives, read-out: Anti-TB Activity MIC
[10] = Mycobacterium tuberculosis, H37RV, read-out: minimum inhibitory concentration (MIC) against M. tuberculosis
[11] = Table 1a, J774 cells, read-out: J774 IC50 (toxicity)

Compound | enhancement in potency of macrolide over counterpart ketolide (M. tuberculosis H37Rv [4]) [fold] | IC50 (VERO cells [2]; Chlorocebus sabaeus, Vero) [µM] | MIC (M. tuberculosis H37Rv [4]; [9]) [µM] | MIC (M. tuberculosis H37Rv [4]; [10]) [µM] | MIC / activity vs. M. tuberculosis in words (M. tuberculosis H37Rv [4]) | IC50 [6, 11] [µM] | overt signs of toxicity (weight loss, ruffled fur, huddling) [8] | toxicity / cytotoxicity in words (VERO cells [2]) | activity against M. tuberculosis in the acute phase of infection (M. tuberculosis Erdman) | other results
CC[C@H]1OC(=O)[C@H](C)[C@@H](O[C@H]2C[C@@](C)(OC)[C@@H](O)[C@H](C)O2)[C@H](C)[C@@H](O[C@@H]2O[C@H](C)C[C@H](N(C)C)[C@H]2O)[C@](C)(OC)C[C@@H](C)C(=O)[C@H](C)[C@@H](O)[C@]1(C)O [Clarithromycin, reference compound] | 16 |  |  |  |  |  |  |  |  | activity in mouse models (tubercle bacillus [1]): marginal and nil; IC50 (VERO cells [2]; Table 2a, Vero cells): 41 µM; MIC against the tubercle bacillus (tubercle bacillus [3]): 4 to 64 mg/L; MIC (M. tuberculosis H37Rv [4]; Table 2a, 11,12-diols, read-out: Anti-TB Activity MIC): 8 µM (≈ 5.98 µg/mL)
CC[C@H]1OC(=O)[C@@](C)(F)C(=O)[C@H](C)[C@@H](O[C@@H]2O[C@H](C)C[C@H](N(C)C)[C@H]2O)[C@](C)(OCC#Cc2cc(-c3cnc4ccccc4c3)no2)C[C@@H](C)C(=O)[C@H](C)[C@H]2NC(=O)O[C@@]21C [Compound A323348] |  | 24.3 | 0.38 (≈ 0.323 µg/mL) | 0.38 (≈ 0.323 µg/mL) | very low | 15.3 |  |  |  | toxicity / cytotoxicity in words (VERO cells [5]): comparable to clarithromycin
NNC(=O)c1ccncc1 [Isoniazid] |  |  |  |  |  |  |  |  |  | expected MIC range of quality control compound (M. tuberculosis H37Rv [7]): 0.025 to 0.1 mg/L
CC[C@H]1OC(=O)[C@H](C)C(OC2CC(C)(OC)[C@@H](O)[C@H](C)O2)[C@H](C)[C@@H](O[C@@H]2O[C@H](C)C[C@H](N(C)C)[C@H]2O)[C@](C)(OC)C[C@@H](C)C(=O)[C@H](C)[C@H]2N(NCCCc3ccnc4ccccc34)C(=O)O[C@]12C (stereo partly drawn) [RU66252] | 16 |  |  |  | very low |  | No signs of overt toxicity | comparable to clarithromycin | dose-dependent activity | M. tuberculosis inhibition in mice (M. tuberculosis; 150 mg/kg and 200 mg/kg): significant; dose response in mice (M. tuberculosis; between 50 and 200 mg/kg): shows a dose response; activity against M. tuberculosis in mice (M. tuberculosis; mice): active; colonies from treated mouse lung homogenates (M. tuberculosis Erdman; 10^−2 dilution plates): no colonies; MIC (M. tuberculosis H37Rv [4]; Table 1a, 11,12-carbamate derivatives, read-out: Anti-TB Activity MIC): 0.25 µM (≈ 0.239 µg/mL); MIC (M. tuberculosis H37Rv [4]; Table 3, parallel-synthesis carbazate library products): 9 µM (≈ 8.61 µg/mL); MIC vs. M. tuberculosis (M. tuberculosis H37Rv [4]; follow-up assays): about 9 μM; MIC (M. tuberculosis H37Rv [4]; read-out: minimum inhibitory concentration (MIC) against M. tuberculosis): 0.25 µM (≈ 0.239 µg/mL)
CC[C@H]1OC(=O)[C@H](C)[C@@H](O[C@H]2C[C@@](C)(OC)[C@@H](O)[C@H](C)O2)[C@H](C)[C@@H](O[C@@H]2O[C@H](C)C[C@H](N(C)C)[C@H]2O)[C@](C)(OC)C[C@@H](C)C(=O)[C@H](C)[C@H]2N(CCCCn3cnc(-c4cccnc4)c3)C(=O)O[C@]12C [RU69874] | 126 | 27 | 0.38 (≈ 0.369 µg/mL) | 0.38 (≈ 0.369 µg/mL) | very low | 58.6 | No signs of overt toxicity | comparable to clarithromycin | less activity | selectivity index (SI) ([6]; J774 cells): 154; IC50 ([6]; based on J774 cells, read-out: toxicity): 59 µM
